Measurements as given in patent US6455286B1, “Psoralens for pathogen inactivation” (Cerus Corporation, priority 1997, dated 2002).
“Also recorded” adds a separate entry of the source.

Experiments:
R17 = R17 bacteriophage screen (photoinactivation, plaque assay on Hfr 3000 bacteria); type: cell-based; conditions: for Average log Inactivation, 4 μM: compound at 4 μM; for Average log Inactivation, 4 μM / Average log Inactivation, 32 μM: 15% FBS in DMEM, UVA 1 J/cm^2, average of 1-4 replicates; for Average log Inactivation, 32 μM: compound at 32 μM
From the text: A discussion of inactivation of pathogens other than the R17 model discussed below can be found in U.S. Pat. No. 5,593,823. This reference enables the selection criteria for use in pathogen inactivation of blood products for the compounds of the present invention. The screening technique used to evaluate the compounds of the present invention is to perform a bacteriophage screen; an assay which determines nucleic acid binding of test compounds. A screen of this type, an R17 screen, is described in detail in EXAMPLE 13, below.
The R17 bacteriophage screen is believed to be predictive of HIV inactivation efficiency, as well as the efficiency of compounds against many other viruses. It is a small, single stranded RNA phage. […] Further, single stranded RNA pathogens are more difficult to inactivate because psoralens can neither intercalate between base pairs, as with double-stranded nucleic acids, nor form diadducts which function as interstrand crosslinks. Thus it is expected that when inactivation of R17 is achieved, these same conditions will cause the inactivation of many viruses and bacteria.
The R17 was grown up in Hfr 3000 bacteria, approximate titer 5×10^11. (R17 and Hfr 3000 were obtained from American Tissue Culture Collection (ATCC), Washington, D.C.) The R17 phage stock was added to a solution of 15% fetal bovine serum in DMEM to a final phage concentration of 10^8/mL. An aliquot (0.5 mL) was transferred to a 1.5 mL snap-top polyethylene tube. An aliquot (0.004-0.040 mL) of the test compound stock solution prepared in water, ethanol or dimethylsulfoxide at 0.5 mM was added to the tube. Compounds were tested at concentrations between 4 μM and 32 μM. (AMT is commercially available from HRI, Inc., Concord, Calif.; 8-MOP is commercially available from Sigma, St. Louis, Mo.). The tubes were placed in a light device similar to that described in U.S. Pat. No. 5,593,823 (Baxter Ultraviolet Irradiation System, modified #4R4440) and irradiated at a dose setting of 1 J/cm^2. Sterile 13 mL dilution tubes were prepared; each test compound required one tube with 0.4 mL of LB broth and five tubes containing 0.5 mL of LB broth. To make the dilutions, a 0.100 mL aliquot of the irradiated solution of phage and test compound was added to the first dilution tube of 0.4 mL of media then 0.020 mL of this solution was added to the second tube of 0.5 mL medium (1:25). The second solution was then diluted serially (1:25) into the remaining tubes. To each diluted sample was added 0.050 mL of Hfr 3000 bacteria cultured overnight and 3 mL of molten LB top agar and the mixed materials were poured onto LB broth plates. After the top agar hardened, the plates were incubated at 37° C. overnight. The plaque forming units were then counted the following morning and the titer of the phage remaining after phototreatment was calculated based on the dilution factors.
The following controls were run: the “phage only” in which phage was not treated with test compound and not irradiated (listed as “starting titer” in the tables below); and the “dark” control in which the phage/test compound solution was not irradiated before it was diluted and plated. A “UV only” control in which the phage was illuminated without treatment with test compound was not run with these experiments.

DNA = conditions: cited from earlier work
[1] = Ames assay / bacterial assays, absence of light; cited from earlier work
cell-free HIV (HIV-1) = test: Inactivation of cell-free HIV, residual infectivity by MT-2 microtiter plaque assay; type: cell-based; conditions: compound at 32 μM; 1 minute irradiation 320-400 nm (20 mW/cm^2); DMEM/15% FBS
Experimental: Pathogen inactivation efficiency of three compounds tested in the previous example were evaluated by examining the ability of the compounds to inactivate cell-free virus (HIV). Inactivation of cell-free HIV was performed as follows.
Small aliquots of the compounds were added to stock HIV-1 to a compound concentration of 32 μM in a total of 0.5 mL. The stock HIV (10^5-10^7 plaque forming units/mL) was in DMEM/15% FBS. The 0.5 mL test aliquots were placed in 24 well polystyrene tissue culture plates and irradiated with 320-400 nm (20 mW/cm^2) for 1 minute on a device similar to the device of EXAMPLE 13. Controls included HIV-1 stock only, HIV-1 plus UVA only, and HIV-1 plus the highest concentration of each psoralen tested, with no UVA. Post irradiation, all samples were stored frozen at −70° C. until assayed for infectivity by a microtiter plaque assay. Aliquots for measurement of residual HIV infectivity in the samples were withdrawn and cultured.
Residual HIV infectivity was assayed using an MT-2 infectivity assay. (Previously described in Hanson, C. V., Crowford-Miksza, L. and Sheppard, H. W., J. Clin. Micro 28:2030 (1990)). The assay medium was 85% DMEM (with a high glucose concentration) containing 100 μg of streptomycin, 100 U of penicillin, 50 μg of gentamicin, and 1 μg of amphotericin B per mL, 15% FBS and 2 μg of Polybrene (Sigma Chemical Co., St. Louis, Mo.) per mL. Test and control samples from the inactivation procedure were diluted in a mixture of 50% assay medium and 50% normal human serum. The samples were serially diluted directly in 96-well plates (Corning Glass Works, corning, N.Y.). The plates were mixed on an oscillatory shaker for 30 seconds and incubated at 37° C. in a 5% CO2 atmosphere for 1 to 18 hours. […] After 24 to 48 hours, the orange fluorescence-stained microplaques were visualized by placing the plates on an 8,000 μW/cm^2 304 nm UV light box (Fotodyne, Inc., New Berlin, Wis.). The plaques were counted at a magnification of ×20 to ×25 through a stereomicroscope.

In the case of Cc1cc2cc3c(C)c(COCCN)c(=O)oc3c(C)c2o1 [3-(4-amino-2-oxa)butyl-4,5′,8-trimethylpsoralen], the “Effectiveness of R17 inactivation relative to AMT” value (R17; similar inactivation at less than half the AMT concentration, data not shown) is reported as “at least twice as effective as AMT”.

With Cc1oc2cc3oc(=O)ccc3c(COCCN)c2c1C [Compound 39, 5-(4-amino-2-oxa)butyl-4′,5′-dimethylpsoralen] the “Average log Inactivation, 4 μM” value (R17) was 1.6 log and the “Average log Inactivation, 32 μM” value (R17) was over 6.6 log.

In the case of Cc1oc2c(COCCN)c3oc(=O)cc(C)c3cc2c1C [Compound 40, 8-(4-amino-2-oxa)butyl-4,4′,5′-trimethylpsoralen], the “Average log Inactivation, 4 μM” value (R17) is reported as 2.1 log and the “Average log Inactivation, 32 μM” value (R17) is reported as over 6.3 log.

In the case of Cc1oc2c(C)c3oc(=O)cc(CN)c3cc2c1C [Compound 36, 4-aminomethyl-4′,5′,8-trimethylpsoralen], the “Average log Inactivation, 4 μM” value (R17) is reported as 0.1 log and the “Average log Inactivation, 32 μM” value (R17) is reported as 1.1 log.

For COc1c2occc2cc2ccc(=O)oc12 [Compound 8-MOP, 8-methoxypsoralen], the “Photoactivated binding to nucleic acids” value (DNA) is listed as “relatively low” and the Mutagenicity [1] is listed as “low mutagenicity”.

In the case of Cc1oc2c(CN)c3oc(=O)cc(C)c3cc2c1C [Compound 32, 8-aminomethyl-4,4′,5′-trimethylpsoralen], the “Average log Inactivation, 4 μM” value (R17) is reported as 1.1 log and the “Log Kill of cell-free HIV” value (cell-free HIV (HIV-1)) is reported as 1.1 log.

With Cc1coc2cc3oc(=O)c(CN)cc3cc12 [Compound 41, 3-aminomethyl-4′-methylpsoralen] the “Average log Inactivation, 4 μM” value (R17) was 0 log and the “Average log Inactivation, 32 μM” value (R17) was 0.6 log.

For Cc1oc2c(C)c3oc(=O)cc(C)c3cc2c1CN [AMT, 4′-aminomethyl-4,5′,8-trimethylpsoralen, reference compound], the “Average log Inactivation, 4 μM” value (R17) is given as 1.6 log, the “Average log Inactivation, 32 μM” value (R17) is given as over 6.5 log and the Mutagenicity [1] is given as “highly mutagenic; also recorded: significant levels of mutagenicity”.

With Cc1oc2c(C)c3oc(=O)c(CN)c(C)c3cc2c1C [Compound 34, 3-aminomethyl-4,4′,5′,8-tetramethylpsoralen] the “Average log Inactivation, 4 μM” value (R17) was 1.4 log and the “Log Kill of cell-free HIV” value (cell-free HIV (HIV-1)) was 3.5 log.

With Cc1coc2cc3oc(=O)cc(CN)c3cc12 [Compound 42, 4-aminomethyl-4′-methylpsoralen] the “Average log Inactivation, 4 μM” value (R17) was 0 log and the “Average log Inactivation, 32 μM” value (R17) was 1.2 log.

With Cc1cc2cc3c(C)c(CCN)c(=O)oc3c(C)c2o1 [Compound 35, 3-amino ethyl-4,5′,8-trimethylpsoralen] the “Average log Inactivation, 4 μM” value (R17) was 1.6 log.

For Cc1coc2c(C)c3oc(=O)c(CN)c(C)c3cc12.Cl [Compound 31, 3-aminomethyl-4,4′,8-trimethylpsoralen hydrochloride], the “Average log Inactivation, 4 μM” value (R17) was 3.1 log and the “Log Kill of cell-free HIV” value (cell-free HIV (HIV-1)) was 1.9 log.

With Cc1coc2c(C)c3oc(=O)c(COCCN)c(C)c3cc12 [Compound 37, 3-(4-amino-2-oxa)butyl-4,4′,8-trimethylpsoralen] the “Average log Inactivation, 4 μM” value (R17) was 4.3 log and the “Average log Inactivation, 32 μM” value (R17) was over 6.5 log.

In the case of Cc1oc2c(C)c3oc(=O)cc(COCCN)c3cc2c1C [Compound 38, 4-(4-Amino-2-oxa)butyl-4′,5′,8-trimethylpsoralen], the “Average log Inactivation, 4 μM” value (R17) is reported as 2.2 log and the “Average log Inactivation, 32 μM” value (R17) is reported as “≧4.0 log”.

For Cc1cc2cc3c(C)cc(=O)oc3c(CN)c2o1.Cl [Compound 33, 8-aminomethyl-4,5′-dimethylpsoralen hydrochloride], the “Average log Inactivation, 4 μM” value (R17) was 0.4 log and the “Average log Inactivation, 32 μM” value (R17) was 1.7 log.
